Test results from BigSolDB 2.1.

CN1CCC(N(Cc2cccs2)c2ccccc2)CC1
solubility (mole fraction)
Details	278.15 K	283.15 K	288.15 K	293.15 K	298.15 K	303.15 K	308.15 K	313.15 K	318.15 K	323.15 K
in DMF	0.00706	0.00795	0.00881	0.00971	0.0108	0.0119	0.0132	0.0143	0.0158	0.0175
in water	2.63e-05	2.84e-05	3.06e-05	3.36e-05	3.72e-05	4.16e-05	4.62e-05	5.09e-05	5.66e-05	6.3e-05
